In US11453666B2, “Autotaxin inhibitory compounds” (Cancer Research Technology Limited, priority 2015, dated 2022):

target: human recombinant ATX (Homo sapiens, UniProt Q13822); experiment: Autotaxin (ATX) activity Quanta Red assay; type: biochemical; details: Table 2: additional compounds tested for ATX activity (Quanta Red Assay); read-out: Activity
In short: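 Recombinant human ATX reaction stopped after 2 h with Quanta Red stop solution; fluorescence read at […]. Controls with DMSO, with and without ATX; IC50 in duplicate.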

| IC50 [µM] | Compound |
| --- | --- |
| 0.029 | O=C(CCc1nc2cccnc2n1Cc1ccccc1)NCc1ccc(Cl)cc1 [Example 217, 3-(3-Benzyl-3H-imidazo[4,5-b]pyridin-2-yl)-N-(4-chloro-benzyl)-propionamide] |

same assay, conditions: human recombinant ATX 0.8 μg/mL, 2 hours at room temperature, IC50 determined in duplicate; read-out: Activity (ATX activity, Quanta Red assay; IC50)

| Compound | IC50 [µM] |
| --- | --- |
| C[C@@H](NC(=O)CCc1nc2cccnc2n1Cc1ccccc1)c1ccccc1 [Example 4, 3-(3-Benzyl-3H-imidazo[4,5-b]pyridin-2-yl)-N-((R)-1-phenyl-ethyl)-propionamide] | 2.63 |
| C[C@H](NC(=O)C[S+]([O-])c1nc2cccnc2n1Cc1ccc(OC(F)(F)F)cc1)c1ccc(F)cc1 (single isomer, unassigned) [Example 149] | 0.178 |
| C[C@H](NC(=O)C[S+]([O-])c1nc2cccnc2n1Cc1ccc(OC(F)(F)F)cc1)c1ccc(F)cc1 (single isomer, unassigned) [Example 148] | 0.01 |

same assay, conditions: read-out: Activity (ATX activity, Quanta Red assay; IC50)

| Compound | IC50 [µM] |
| --- | --- |
| C[C@H](NC(=O)CCc1nc2cccnc2n1Cc1ccc(F)cc1)c1ccccn1 [Example 68, 3-[3-(4-Fluoro-benzyl)-3H-imidazo[4,5-b]pyridin-2-yl]-N-((S)-1-pyridin-2-yl-ethyl)-propionamide] | 0.212 |
| COc1ccc(CNC(=O)CCc2nc3cc(C)cnc3n2Cc2ccc(OC(F)(F)F)cc2)cc1 [Example 53, N-(4-Methoxy-benzyl)-3-[6-methyl-3-(4-trifluoromethoxy-benzyl)-3H-imidazo[4,5-b]pyridin-2-yl]-propionamide] | 0.038 |
| COc1ccc(Cn2c(CCC(=O)N(C)Cc3ccccc3)nc3cccnc32)cc1 [Example 102] | 0.568 |
| O=C(CCc1nc2cccnc2n1Cc1ccc(F)cc1)NC(CO)c1ccc(F)cc1 (stereo not drawn) [Example 47, 3-[3-(4-Fluoro-benzyl)-3H-imidazo[4,5-b]pyridin-2-yl]-N-[1-(4-fluoro-phenyl)-2-hydroxy-ethyl]-propionamide] | 0.019 |
| O=C(CCc1nc2cccnc2n1Cc1ccccc1)NCC1CCCCC1 [Example 111, 3-(3-Benzyl-3H-imidazo[4,5-b]pyridin-2-yl)-N-cyclohexylmethyl-propionamide] | 0.406 |
| C[C@H](NC(=O)CCc1nc2ccncc2n1Cc1ccc(F)cc1)c1ccccc1 [Example 130, 3-[3-(4-Fluoro-benzyl)-3H-imidazo[4,5-c]pyridin-2-yl]-N-((S)-1-phenyl-ethyl)-propionamide] | 0.021 |
| Cc1cnc2c(c1)nc(CCC(=O)N[C@@H](C)c1ccc(N3CCCNCC3)cc1)n2Cc1ccc(OC(F)(F)F)cc1 [Example 191, N-[(S)-1-(4-[1,4]Diazepan-1-yl-phenyl)-ethyl]-3-[6-methyl-3-(4-trifluoromethoxy-benzyl)-3H-imidazo[4,5-b]pyridin-2-yl]-propionamide] | 0.025 |
| O=C(CCc1nc2cccnc2n1Cc1ccc(F)c(F)c1)N[C@@H]1c2ccccc2C[C@@H]1O [Example 46, 3-[3-(3,4-Difluoro-benzyl)-3H-imidazo[4,5-b]pyridin-2-yl]-N-((1R,2S)-2-hydroxy-indan-1-yl)-propionamide] | 0.018 |
| CC(NC(=O)CCc1nc2cccnc2n1Cc1ccc(OC(F)(F)F)cc1)C1CCOCC1 (stereo not drawn) [Example 56, N-[1-(Tetrahydro-pyran-4-yl)-ethyl]-3-[3-(4-trifluoromethoxy-benzyl)-3H-imidazo[4,5-b]pyridin-2-yl]-propionamide] | 0.045 |
| O=C(CCc1nc2cccnc2n1Cc1ccc(F)cc1)NCc1ccc(F)cc1 [Example 94, N-(4-Fluoro-benzyl)-3-[3-(4-fluoro-benzyl)-3H-imidazo[4,5-b]pyridin-2-yl]-propionamide] | 0.025 |
| COc1ccc(CNC(=O)CCc2nc3cccc(F)c3n2Cc2ccc(OC)cc2)cc1 [Example 91, 3-[7-Fluoro-1-(4-methoxy-benzyl)-1H-benzoimidazol-2-yl]-N-(4-methoxy-benzyl)-propionamide] | 0.014 |

Results, then the compound that gave them:

| IC50 [µM] | Compound |
| --- | --- |
| 0.003 | O=C(CCc1nc2cccnc2n1Cc1ccc(OC(F)(F)F)cc1)NCc1ccc(Cl)cc1 [Example 18, N-(4-Chloro-benzyl)-3-[3-(4-trifluoromethoxy-benzyl)-3H-imidazo[4,5-b]pyridin-2-yl]-propionamide] |
| 0.003 | NC[C@H](NC(=O)CCc1nc2cccnc2n1Cc1ccc(OC(F)(F)F)cc1)c1ccccc1 [Example 210, N—((R)-2-amino-1-phenyl-ethyl)-3-[3-(4-trifluoromethoxy-benzyl)-3H-imidazo[4,5-b]pyridin-2-yl]-propionamide] |
| 0.004 | O=C(CCc1nc2cccnc2n1Cc1ccc(OC(F)(F)F)cc1)NCc1ccc(OC(F)(F)F)cc1 [Example 22, N-(4-Trifluoromethoxy-benzyl)-3-[3-(4-trifluoromethoxy-benzyl)-3H-imidazo[4,5-b]pyridin-2-yl]-propionamide] |
| 0.001 | O=C(CCc1nc2cccnc2n1Cc1ccc(OC(F)(F)F)cc1)N[C@@H]1c2ccccc2C[C@H]1O [Example 9, N-((1R,2R)-2-Hydroxy-indan-1-yl)-3-[3-(4-trifluoromethoxy-benzyl)-3H-imidazo[4,5-b]pyridin-2-yl]-propionamide] |
| 0.009 | COc1ccc(Cn2c(CCC(=O)N[C@@H](C)c3ccc(C)cc3)nc3cccnc32)cc1 [Example 90, 3-[3-(4-Methoxy-benzyl)-3H-imidazo[4,5-b]pyridin-2-yl]-N-((S)-1-p-tolyl-ethyl)-propionamide] |
| 0.003 | O=C(CCc1nc2cccnc2n1Cc1ccc(OC(F)(F)F)cc1)N[C@@H](CS)c1ccccc1 [Example 209, N—((R)-2-mercapto-1-phenyl-ethyl)-3-[3-(4-trifluoromethoxy-benzyl)-3H-imidazo[4,5-b]pyridin-2-yl]-propionamide] |
| 0.01 | C[C@H](NC(=O)CCc1nc2cccnc2n1Cc1ccc(OC(F)(F)F)cc1)[C@H](O)c1ccccc1 [Example 41, N-((1S,2R)-2-Hydroxy-1-methyl-2-phenyl-ethyl)-3-[3-(4-trifluoromethoxy-benzyl)-3H-imidazo[4,5-b]pyridin-2-yl]-propionamide] |
| 0.002 | COc1ccc(CNC(=O)CCc2nc3cccnc3n2Cc2ccc(OC(F)(F)F)cc2)cc1 [Example 14, N-(4-Methoxy-benzyl)-3-[3-(4-trifluoromethoxy-benzyl)-3H-imidazo[4,5-b]pyridin-2-yl]-propionamide] |
| 0.002 | C[C@H](NC(=O)CCc1nc2cccnc2n1Cc1ccc(OC(F)(F)F)cc1)c1ccc(N2CCCNCC2)cc1 [Example 170, N-[(S)-1-(4-[1,4]Diazepan-1-yl-phenyl)-ethyl]-3-[3-(4-trifluoromethoxy-benzyl)-3H-imidazo[4,5-b]pyridin-2-yl]-propionamide] |
| 0.002 | O=C(CCc1nc2cccnc2n1Cc1ccc(OC(F)(F)F)cc1)NC(CO)c1ccc(F)cc1 (stereo not drawn) [Example 15, N-[1-(4-Fluoro-phenyl)-2-hydroxy-ethyl]-3-[3-(4-trifluoromethoxy-benzyl)-3H-imidazo[4,5-b]pyridin-2-yl]-propionamide] |
| 0.004 | COc1ccc(CNC(=O)CCc2nc3cccnc3n2Cc2ccc(OC(F)(F)F)cc2)cc1F [Example 27, N-(3-Fluoro-4-methoxy-benzyl)-3-[3-(4-trifluoromethoxy-benzyl)-3H-imidazo[4,5-b]pyridin-2-yl]-propionamide] |
| 0.013 | C[C@H](NC(=O)CCc1nc2cccnc2n1Cc1ccc(F)cc1)c1ccc(N2CCOCC2)cc1 [Example 185, 3-[3-(4-Fluoro-benzyl)-3H-imidazo[4,5-b]pyridin-2-yl]-N-[(S)-1-(4-morpholin-4-yl-phenyl)-ethyl]-propionamide] |
